In article PMC3020970, “K70Q Adds High-Level Tenofovir Resistance to “Q151M Complex” HIV Reverse Transcriptase through the Enhanced Discrimination Mechanism” (PLoS ONE, 2011):
Values joined by “and” are separate entries in the source; they are usually repeats but may differ in a detail not shown here. Identical values can stand only once.

What was measured:
Assay in all cases: Pre-steady state kinetics of binding and incorporation
Type in all cases: biochemical
[1] = molecular target: T1, HIV-1 RT K70Q (Human immunodeficiency virus type 1 group M subtype B, UniProt P03366, K669Q)
T1 construct: made in house; host or cells: Escherichia coli BL21
Protocol: (§1) The reactions were quenched at various times (10 ms to 5 s) by adding EDTA to a final concentration of 50 mM. The amounts of product (P18-dAMP) were quantitated and fit to the following burst equation: [drawing 1] (1) where A is the amplitude of the burst phase that represents the RT-DNA complex at the start of the reaction, k obs is the observed burst rate constant for dNTP incorporation, k ss is the steady state rate constant, and t is the reaction time. The rate constant of the linear phase (kcat) can be estimated by dividing the slope of the linear phase by the enzyme concentration. The active site concentration and template/primer binding affinity (KD-DNA) were determined by plotting the amplitude (A) against the concentration of template/primer. The data were fit using non-linear regression to a quadratic equation: [drawing 2] (2) where KD is the dissociation constant for the RT-DNA complex, and [RT] is the concentration of active polymerase molecules. Subsequent biochemical experiments were performed using corrected active site concentrations, [43].
(§2) HIV-1 RT (50 nM active sites) was pre-incubated with 50 nM T31/P18 in one syringe (Syringe A), whereas varying concentrations of dNTP and 10 mM MgCl2 were kept in another syringe (Syringe B). The solutions were rapidly mixed to initiate reactions, which were subsequently quenched at various times (5 ms to 10 s) by adding EDTA to a final concentration of 50 mM. The products from each quenched reaction were resolved, quantitated, and plotted as described above. The data were fit by non-linear regression to the burst equation (Eq 1).
(§3) To obtain the dissociation constant KD-dNTP for dNTP binding to the RT-DNA complex, the observed burst rates (kobs) were fit to the hyperbolic equation (Eq. 3) using nonlinear regression: [drawing 3] (3) where kpol is the optimal rate of dNTP incorporation.

[2] = molecular target: T2, HIV-1 RT K70Q/Q151Mc (Human immunodeficiency virus type 1 group M subtype B, UniProt P03366, A661V/F676L/F715Y/K669Q/Q750M/V674I)
T2 construct: made in house; host or cells: Escherichia coli BL21
Protocol: as §1, with “Determination of active site concentrations in the different preparations of WT and mutant RTs were performed using pre-steady state burst experiments. […] The reactions” for “The reactions”
as §2, §3
(§4) The kinetics of TFV incorporation by the WT and mutant enzymes were carried out in a manner similar to that employed for natural dNTP substrate except the time of reactions. It was noted that the mutant enzymes required longer time to incorporate TFV compared to the WT HIV-1 RT (detailed in the Results section).

[3] = molecular target: T3, HIV-1 RT Q151Mc (Human immunodeficiency virus type 1 group M subtype B, UniProt P03366, A661V/F676L/F715Y/Q750M/V674I)
T3 construct: made in house; host or cells: Escherichia coli BL21
Protocol: as §1, with “Determination of active site concentrations in the different preparations of WT and mutant RTs were performed using pre-steady state burst experiments. […] The reactions” for “The reactions”
as §2, §3, §4

[4] = molecular target: T4, HIV-1 RT WT (Human immunodeficiency virus type 1 group M subtype B, UniProt P03366)
T4 construct: made in house; host or cells: Escherichia coli BL21
Protocol: as §1, with “Determination of active site concentrations in the different preparations of WT and mutant RTs were performed using pre-steady state burst experiments. […] The reactions” for “The reactions”
as §2, §3, §4

CC(Cn1cnc2c(N)ncnc21)OCP(=O)(O)OP(=O)(O)OP(=O)(O)O (stereo in doubt) [TFV-DP, tenofovir-diphosphate]
Selectivity (k pol/Kd)dATP/(k pol/Kd)TFV-DP ([1]; K70Q RT): 6.1 | k pol/Kd ([1]; K70Q RT): 360000 M⁻¹ s⁻¹ and 360000 ± 80000 M⁻¹ s⁻¹ | Reduced affinity for TFV than the WT enzyme ([1]; K70Q RT vs WT RT): more than 4.5 fold | k pol ([1]; K70Q RT, T31/P18, 37°C): 3.1 s⁻¹ and 3.1 ± 0.4 s⁻¹ | Kd ([1]; K70Q RT, binding to RT-DNA complex): 8.6 ± 1.5 µM | Selectivity (k pol/Kd)dATP/(k pol/Kd)TFV-DP ([2]; K70Q/Q151Mc RT): 26.3 | k pol/Kd ([2]; K70Q/Q151Mc RT): 110000 M⁻¹ s⁻¹ and 110000 ± 30000 M⁻¹ s⁻¹ | Reduced affinity for TFV than the WT enzyme ([2]; K70Q/Q151Mc RT vs WT RT): more than 4.5 fold | k pol ([2]; K70Q/Q151Mc RT, T31/P18, 37°C): 1.0 ± 0.03 s⁻¹ | Kd ([2]; K70Q/Q151Mc RT, binding to RT-DNA complex): 8.9 ± 2.1 µM | Selectivity (k pol/Kd)dATP/(k pol/Kd)TFV-DP [3]: 11 | k pol/Kd [3]: 300000 M⁻¹ s⁻¹ and 300000 ± 60000 M⁻¹ s⁻¹ | k pol ([3]; T31/P18, 37°C): 1.3 ± 0.03 s⁻¹ | Kd ([3]; binding to RT-DNA complex): 4.3 ± 0.8 µM | Selectivity (k pol/Kd)dATP/(k pol/Kd)TFV-DP [4]: 1.6 | k pol/Kd [4]: 1.47e+06 M⁻¹ s⁻¹ and 1.47e+06 ± 70000 M⁻¹ s⁻¹ | k pol ([4]; T31/P18, 37°C): 2.8 s⁻¹ and 2.8 ± 0.08 s⁻¹ | Kd ([4]; binding to RT-DNA complex): 1.9 ± 0.2 µM
